Article PMC11345829, “Discovery of Potent Isoquinolinequinone N-Oxides to Overcome Cancer Multidrug Resistance” (Journal of Medicinal Chemistry, 2024)
Where two headings read alike, the source gives them in different places.

Experiments:
[1] = system: NCI60 tumor cell line panel; assay: NCI60 five-dose screen, mean over panel; assay type: cell-based, human
Excerpt: (§1) The concentration−response curve generated enables the determination of three criteria, GI50 (drug concentration at which 50% of cell growth is inhibited), total growth inhibition (TGI) and LC50 (drug concentration at which 50% of tumor cells are killed) which can be used to compare effectiveness against any compound tested in the screen since its inception.
(§2) S2.1 NCI Screening Assay Experimental details
(§3) NCI Screening Assay Experimental: Cancer cell growth assays (NCI60 screening) 5,6 One-dose study: Tested compounds were initially solubilised in DMSO, diluted into RPMI 1640 and 5% fetal bovine serum/L-glutamine, and added to 96-well plates containing cell lines previously cultured for 24 h. After 48 h incubation, the media were removed, and the cells were fixed and stained with sulforhodamine B to determine overall percent growth/ total protein content. Unbound dye was removed with five washes of 1% acetic acid, and the plates were allowed to air dry. The dye was then resolubilised in Tris buffer, and the colorimetric absorbance was measured (515 nm). Growth inhibition was measured relative to the response generated from proliferating cells cultured under identical conditions for 48 h. Data from one-dose experiments pertains to the percentage growth at […]
(§4) Five-dose study: Serial 5 × 10-fold dilution from an initial DMSO stock solution was performed, prior to incubation at each individual concentration (10 nM, 100 nM, 1 μM, 10 μM and 100 μM). Using seven absorbance measurements (time zero (Tz), control growth (C), and test growth in the presence of drug at the five concentration levels (Ti)), the percentage growth was calculated at each of the drug concentrations levels. Percentage growth inhibition was calculated as: [(Ti − Tz)/(C − Tz)] × 100 for concentrations for which Ti ≥ Tz, [(Ti − Tz)/Tz] × 100 for concentrations for which Ti < Tz. Three dose response parameters were calculated for each experimental agent. […]
(§5) was calculated from [(Ti − Tz)/(C − Tz)] × 100 = 50, which is the drug concentration resulting in a 50% reduction in the net protein increase (as measured by sulforhodamine B staining) in control cells during the drug incubation. The drug concentration resulting in total growth inhibition (TGI) was calculated from Ti = Tz. The LC50 (concentration of drug resulting in a 50% reduction in the measured protein at the end of the drug treatment as compared to that at the beginning) indicating a net loss of cells following treatment was calculated from [(Ti − Tz)/Tz] × 100 = −50. Values were calculated for each of these three parameters if the level of activity was reached; however, if the effect was not reached or was exceeded, the value for that parameter was expressed as greater or less than the maximum or minimum concentration tested.

NCI-H460 = assay: NCI60 five-dose GI50 (NCI data); assay type: cell-based; settings: Homo sapiens, NCI data provided for comparison, read-out: NSCLC NCI-H460 GI50 (NCI)
Excerpt: as §1, §2, §3, §4, §5

NCI-H460/R = assay: SRB cell growth inhibition assay; assay type: cell-based, human; settings: for selectivity ratio NSCLC: GI50 sensitive NCI-H460 / GI50 MDR NCI-H460/R; for GI50: Homo sapiens, NCI-H460, 48 h, NSCLC MDR, mean ± SEM; for GI50 / GI50 concentration range against MDR NCI-H460/R: SRB assay; for GI50 concentration range against MDR NCI-H460/R: in words
Description: Two distinct pairs of counterpart drug-sensitive and MDR human tumor cell lines were used, namely the non-small lung cancer (NSCLC) NCI-H460 (same cell line as in the NCI screen) and its MDR counterpart cell line NCI-[…] and the colorectal cancer DLD1 and its MDR counterpart cell line DLD1-TxR (Table 3). The screening was performed using the SRB assay, and the GI50 for each compound was determined by interpolation on the attained concentration-response curves and compared with NCI60 screening data (SI, Figures S62-S63; Table S21). Two pairs of drug-sensitive and multidrug-resistant (MDR) cell lines from human nonsmall cell lung cancer (NSCLC), NCI-H460 and NCI-[…], and colorectal cancer, DLD1 and DLD1-TxR, kindly provided by Dr M. […] The A549 cell line was maintained in Dulbecco's Modified Eagle Medium (DMEM) supplemented with 4.5 g/L Glucose with UltraGlutamine with sodium pyruvate (Lonza, Basel Stücki, Switzerland), enriched with 10% fetal bovine serum (FBS; Biowest, Nuaillé, France). […] For the sulforhodamine B (SRB) and 3D cell culture assays, the media were supplemented with 5% FBS. The remaining experiments were performed with medium supplemented with 10% FBS. […] The SRB assay was performed as previously described.[78],[79] Briefly, after fixing cells with 10% (w/v) ice-cold trichloroacetic acid (Merck Life Science), the proteins were stained with 0.4% of SRB (Merck Life Science) in acetic acid (Merck Life Science). Following washing steps in acetic acid, the bound dye was solubilized with 10 mM Tris base solution (Merck Life Science). Absorbance was measured at 510 nm in a multiplate reader (Synergy Mx, Biotek Instruments Inc., Winooski, Vermont, USA) using the Gen5 software (Biotek Instruments Inc.).

COLO-205 = assay: NCI60 five-dose GI50; assay type: cell-based; settings: Homo sapiens, colon
Excerpt: as §1, §2, §3, §4, §5

K-562 = assay: NCI60 five-dose GI50; assay type: cell-based; settings: Homo sapiens, K562, five dose; leukemia
Excerpt: as §1, §2, §3, §4, §5

LOX-IMVI = assay: NCI60 five-dose GI50; assay type: cell-based; settings: Homo sapiens, melanoma
Excerpt: as §1, §2, §3, §4, §5

MCF-7 = assay: NCI60 five-dose GI50; assay type: cell-based; settings: Homo sapiens, MCF7, breast
Excerpt: as §1, §2, §3, §4, §5

NCI-ADR/RES = assay: NCI60 five-dose GI50; assay type: cell-based; settings: Homo sapiens
Excerpt: as §1, §2, §3, §4, §5

OVCAR-3 = assay: NCI60 five-dose GI50; assay type: cell-based; settings: Homo sapiens, ovarian
Excerpt: as §1, §2, §3, §4, §5

UACC-62 = assay: NCI60 five-dose GI50; assay type: cell-based; settings: Homo sapiens, melanoma
Excerpt: as §1, §2, §3, §4, §5

OVCAR-8 = assay: NCI60 five-dose GI50; assay type: cell-based; settings: Homo sapiens, ovarian
Excerpt: as §1, §2
as §3, with “nm).” for “nm). Growth inhibition was measured relative to the response generated from proliferating cells cultured under identical conditions for 48 h. Data from one-dose experiments pertains to the percentage growth at”
as §4, §5

[2] = Homo sapiens, five dose, across 57-60 cell lines (number given per compound), read-out: Mean of GI50 as Log 10 Concentration (SD) (converted)
[3] = five dose, mean over 52 human tumor cell lines common to all analogues, read-out: mean GI50

SMILES	fold more potent average GI50 than 1 ([1]; 2 versus 1)	GI50 (NCI-H460)	selectivity ratio NSCLC (NCI-H460/R)	GI50 (NCI-H460/R)	GI50 concentration range against MDR NCI-H460/R (NCI-H460/R)	GI50 [1, 2]	GI50 [1, 3]	GI50 (COLO-205)	GI50 (K-562)	GI50 (LOX-IMVI)	GI50 (MCF-7)	GI50 (NCI-ADR/RES; MDR ovarian)	GI50 (OVCAR-3)	GI50 (UACC-62)	GI50 (OVCAR-8)	share of FDA approved anticancer agents outperformed in mean LC50 ([1]; comparison with ref 45)	share of FDA approved anticancer agents with higher mean GI50 ([1]; comparison with ref 45)	cell lines with ≤200 nM GI50 ([1]; five dose, number of cell lines out of 60)	GI50 (NCI-ADR/RES)
COC(=O)c1c2c(c(C)[n+]([O-])c1C)C(=O)C=C(NCc1ccccc1)C2=O [Compound 2]	2.8 fold	2740 nM	1.7	830 ± 20 nM	nanomolar range														
COC(=O)c1c2c(c(C)[n+]([O-])c1C)C(=O)C(NCc1ccc(F)cc1)=CC2=O [Compound 4]		792 nM	1.2	2250 ± 270 nM		1410 nM	1540 nM	376 nM	2430 nM	1940 nM	1110 nM	1680 nM	319 nM	1250 nM	1590 nM				
COC(=O)c1c2c(c(C)[n+]([O-])c1C)C(=O)C=C(NCc1ccc(F)cc1)C2=O [Compound 5]		525 nM	1.6	360 ± 110 nM	nanomolar range	583 nM	760 nM	260 nM	352 nM	226 nM	296 nM	487 nM	240 nM	229 nM	406 nM				
COC(=O)c1c2c(c(C)[n+]([O-])c1C)C(=O)C(NCc1ccc(O)cc1)=CC2=O [Compound 20]		1580 nM	1.2	4840 ± 740 nM		1310 nM	1580 nM	579 nM	1630 nM	938 nM	416 nM	2200 nM	266 nM	1360 nM	1080 nM				
COC(=O)c1c2c(c[n+]([O-])c1C)C(=O)C=CC2=O [Compound 23]		12800 nM	2.1	17900 ± 3360 nM		2490 nM	2150 nM	1850 nM	2510 nM	1960 nM	1650 nM	3270 nM	320 nM	1810 nM	2930 nM				
COC(=O)c1c2c(c[n+]([O-])c1C)C(=O)C(NCc1ccccc1)=CC2=O [Compound 24]		383 nM	2	380 ± 20 nM	nanomolar range	579 nM	690 nM	330 nM	620 nM	300 nM	200 nM	310 nM	270 nM	350 nM	320 nM				
COC(=O)c1c2c(c[n+]([O-])c1C)C(=O)C=C(NCc1ccccc1)C2=O [Compound 25]		210 nM	1	340 ± 30 nM	nanomolar range	190 nM	210 nM	160 nM	250 nM	190 nM	150 nM	230 nM	48 nM	160 nM	240 nM	86%	83%	31/60	227 nM
COc1cccc2c1C(=O)c1c(O)c3c(c(O)c1C2=O)C[C@@](O)(C(=O)CO)C[C@@H]3O[C@H]1C[C@H](N)[C@H](O)[C@H](C)O1 [doxorubicin, reference compound]				2460 ± 40 nM															
